Measured values published in ChEMBL document CHEMBL1909046, “DrugMatrix in vitro pharmacology data”.

Tests used:
[1] = molecular target: T1, Alpha-2A adrenergic receptor (Homo sapiens, UniProt P08913); type: cell membranes, Sf9, Membrane; details: for Ki: read-out: Ki; for all read-outs here: in other assays of this panel Not Active means under 50% inhibition at 10 µM
T1 sequence (P08913 whole entry): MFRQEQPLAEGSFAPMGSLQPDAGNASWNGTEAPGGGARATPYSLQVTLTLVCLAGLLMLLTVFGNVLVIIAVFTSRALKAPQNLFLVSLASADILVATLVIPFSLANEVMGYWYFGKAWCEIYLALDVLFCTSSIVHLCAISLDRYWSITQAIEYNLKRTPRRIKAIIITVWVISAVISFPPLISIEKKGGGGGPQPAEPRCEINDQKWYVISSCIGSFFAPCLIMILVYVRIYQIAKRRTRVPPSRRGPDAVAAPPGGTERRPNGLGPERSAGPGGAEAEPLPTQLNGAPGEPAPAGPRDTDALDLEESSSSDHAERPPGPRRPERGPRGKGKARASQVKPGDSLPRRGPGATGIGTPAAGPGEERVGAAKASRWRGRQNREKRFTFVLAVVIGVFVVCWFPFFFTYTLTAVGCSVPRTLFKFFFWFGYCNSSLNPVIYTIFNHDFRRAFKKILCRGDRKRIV

[2] = molecular target: Aldo-keto reductase family 1 member B1 (Rattus norvegicus, UniProt P07943); test: biochemical; type: tissue-based, Lens of camera-type eye;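 note: inhibition of aldose reductase enzyme activity, measured with DL-glyceraldehyde as the substrate; in other assays of this panel Not Active means under 50% inhibition at 10 µM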
[3] = DRUGMATRIX: Sigma2 radioligand binding (ligand: [3H] Ifenprodil); type: cell membranes, Rattus norvegicus, Wistar, Brain, Membrane; details: Not Active = under 50% inhibition at 10 µM
[4] = molecular target: Platelet-activating factor receptor (Homo sapiens, UniProt P25105); type: tissue-based; note: in other assays of this panel Not Active means under 50% inhibition at 10 µM
Platelet-activating factor receptor, sequence (P25105 whole entry): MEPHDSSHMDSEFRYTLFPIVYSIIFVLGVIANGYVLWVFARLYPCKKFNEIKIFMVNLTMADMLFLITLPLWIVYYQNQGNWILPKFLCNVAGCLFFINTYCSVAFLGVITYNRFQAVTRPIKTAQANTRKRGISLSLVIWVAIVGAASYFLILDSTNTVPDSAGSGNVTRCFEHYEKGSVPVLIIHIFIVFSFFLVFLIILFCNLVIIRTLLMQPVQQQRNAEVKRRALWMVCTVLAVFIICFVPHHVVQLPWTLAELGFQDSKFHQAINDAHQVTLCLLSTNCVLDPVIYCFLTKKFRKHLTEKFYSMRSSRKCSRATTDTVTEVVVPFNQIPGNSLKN

[5] = molecular target: Receptor tyrosine-protein kinase erbB-2 (Homo sapiens, UniProt P04626); test: biochemical; type: cell-based, Insect cells; details: insect cells;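 note: inhibition of HER2 kinase enzyme activity, measured with Poly(Glu:Tyr) as the phosphorylation substrate; in other assays of this panel Not Active means under 50% inhibition at 10 µM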
Receptor tyrosine-protein kinase erbB-2, sequence (P04626 whole entry): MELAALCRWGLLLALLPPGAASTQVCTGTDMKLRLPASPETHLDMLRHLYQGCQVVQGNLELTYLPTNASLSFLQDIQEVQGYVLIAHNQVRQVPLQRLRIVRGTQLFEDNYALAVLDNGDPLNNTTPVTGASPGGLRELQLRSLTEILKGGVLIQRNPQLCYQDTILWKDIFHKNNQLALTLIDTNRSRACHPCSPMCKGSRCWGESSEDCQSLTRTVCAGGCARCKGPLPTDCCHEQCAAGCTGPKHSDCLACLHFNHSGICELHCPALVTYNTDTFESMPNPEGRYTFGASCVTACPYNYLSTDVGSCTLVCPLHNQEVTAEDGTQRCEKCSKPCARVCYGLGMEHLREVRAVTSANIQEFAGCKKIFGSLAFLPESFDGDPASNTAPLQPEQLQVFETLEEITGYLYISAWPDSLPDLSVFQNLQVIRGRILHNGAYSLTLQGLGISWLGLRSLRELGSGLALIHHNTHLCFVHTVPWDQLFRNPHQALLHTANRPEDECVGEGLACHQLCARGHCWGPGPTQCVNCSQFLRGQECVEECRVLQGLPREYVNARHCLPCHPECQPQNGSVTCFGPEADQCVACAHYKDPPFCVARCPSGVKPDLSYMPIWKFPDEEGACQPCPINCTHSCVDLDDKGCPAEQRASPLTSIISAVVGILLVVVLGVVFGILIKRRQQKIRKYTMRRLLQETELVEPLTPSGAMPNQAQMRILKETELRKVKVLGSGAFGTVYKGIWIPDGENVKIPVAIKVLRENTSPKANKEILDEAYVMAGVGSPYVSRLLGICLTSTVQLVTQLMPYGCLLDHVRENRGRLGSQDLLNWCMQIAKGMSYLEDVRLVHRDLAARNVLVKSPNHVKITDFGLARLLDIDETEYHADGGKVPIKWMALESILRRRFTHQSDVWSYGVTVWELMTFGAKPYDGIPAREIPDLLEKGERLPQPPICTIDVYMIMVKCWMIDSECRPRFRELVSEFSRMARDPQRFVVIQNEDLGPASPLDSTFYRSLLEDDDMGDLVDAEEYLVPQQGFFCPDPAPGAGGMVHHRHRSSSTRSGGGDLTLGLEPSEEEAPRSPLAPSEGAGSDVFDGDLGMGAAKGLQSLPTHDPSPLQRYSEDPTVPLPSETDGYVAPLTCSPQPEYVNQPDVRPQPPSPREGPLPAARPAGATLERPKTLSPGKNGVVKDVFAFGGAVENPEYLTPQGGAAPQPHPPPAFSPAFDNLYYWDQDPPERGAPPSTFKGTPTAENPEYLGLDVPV

[6] = molecular target: T2, Receptor-type tyrosine-protein phosphatase C (Homo sapiens, UniProt P08575); design: species or system Escherichia coli
T2 sequence (P08575 whole entry): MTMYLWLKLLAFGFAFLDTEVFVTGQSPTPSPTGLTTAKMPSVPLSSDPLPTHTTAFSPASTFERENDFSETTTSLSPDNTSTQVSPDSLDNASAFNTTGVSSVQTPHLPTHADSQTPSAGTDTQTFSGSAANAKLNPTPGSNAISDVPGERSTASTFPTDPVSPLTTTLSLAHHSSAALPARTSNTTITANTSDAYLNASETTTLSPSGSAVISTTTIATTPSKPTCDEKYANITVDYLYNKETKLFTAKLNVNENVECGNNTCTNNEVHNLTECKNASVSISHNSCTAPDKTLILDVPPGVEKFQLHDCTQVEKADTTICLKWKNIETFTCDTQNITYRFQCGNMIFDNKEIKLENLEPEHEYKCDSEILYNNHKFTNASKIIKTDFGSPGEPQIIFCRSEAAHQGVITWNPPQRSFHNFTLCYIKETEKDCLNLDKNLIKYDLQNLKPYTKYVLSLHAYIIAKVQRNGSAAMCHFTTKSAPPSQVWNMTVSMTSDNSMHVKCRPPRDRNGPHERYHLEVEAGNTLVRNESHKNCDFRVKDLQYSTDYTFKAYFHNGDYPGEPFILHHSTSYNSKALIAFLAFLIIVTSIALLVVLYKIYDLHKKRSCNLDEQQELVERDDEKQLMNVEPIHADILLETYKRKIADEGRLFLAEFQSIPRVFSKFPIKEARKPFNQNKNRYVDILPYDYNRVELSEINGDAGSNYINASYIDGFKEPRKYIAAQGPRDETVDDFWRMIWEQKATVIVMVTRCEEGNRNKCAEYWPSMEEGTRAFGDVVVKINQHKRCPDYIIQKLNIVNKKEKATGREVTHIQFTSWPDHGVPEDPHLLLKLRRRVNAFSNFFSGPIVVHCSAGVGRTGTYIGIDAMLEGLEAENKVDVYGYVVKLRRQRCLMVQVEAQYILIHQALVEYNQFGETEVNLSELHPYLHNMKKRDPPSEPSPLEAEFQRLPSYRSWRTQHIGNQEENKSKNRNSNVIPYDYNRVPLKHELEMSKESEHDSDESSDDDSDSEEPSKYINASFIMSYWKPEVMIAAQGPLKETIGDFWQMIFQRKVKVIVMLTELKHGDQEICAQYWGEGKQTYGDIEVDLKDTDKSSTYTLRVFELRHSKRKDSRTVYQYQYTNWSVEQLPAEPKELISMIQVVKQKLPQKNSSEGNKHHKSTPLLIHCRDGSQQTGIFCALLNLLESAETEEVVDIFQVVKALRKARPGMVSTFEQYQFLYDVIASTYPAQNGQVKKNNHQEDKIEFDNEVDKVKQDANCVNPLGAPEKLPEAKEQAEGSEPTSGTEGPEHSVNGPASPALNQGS

Cytochrome P450 2E1 = Cytochrome P450 2E1 (Homo sapiens, UniProt P05181); details: bti-tn-5b1-4; note: in other assays of this panel Not Active means under 50% inhibition at 10 µM
Cytochrome P450 2E1, sequence (P05181 whole entry): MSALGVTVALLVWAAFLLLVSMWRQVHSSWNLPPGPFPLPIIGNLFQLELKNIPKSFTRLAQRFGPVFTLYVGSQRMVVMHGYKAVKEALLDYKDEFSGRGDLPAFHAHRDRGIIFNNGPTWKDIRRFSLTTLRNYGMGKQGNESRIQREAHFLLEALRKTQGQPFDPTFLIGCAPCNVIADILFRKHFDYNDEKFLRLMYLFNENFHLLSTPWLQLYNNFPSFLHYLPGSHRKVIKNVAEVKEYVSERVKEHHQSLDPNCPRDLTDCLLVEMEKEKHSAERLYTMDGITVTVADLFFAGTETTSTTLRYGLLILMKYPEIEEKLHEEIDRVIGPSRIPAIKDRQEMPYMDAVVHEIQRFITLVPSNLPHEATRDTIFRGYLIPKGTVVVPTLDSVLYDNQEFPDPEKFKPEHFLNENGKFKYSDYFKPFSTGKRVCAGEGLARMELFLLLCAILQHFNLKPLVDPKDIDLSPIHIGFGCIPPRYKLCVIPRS

Compound	IC50 ([1]; sf9)	IC50 [2]	IC50 [3]	Ki [3]	IC50 [4]	IC50 [5]	IC50 [6]	IC50 (Cytochrome P450 2E1)	Ki (Cytochrome P450 2E1)	IC50 ([1]; read-out: IC50) [nM]	Ki [1] [nM]	Ki [6]
C[C@H]1[C@H](NC(=O)/C(=N\OC(C)(C)C(=O)O)c2csc(N)n2)C(=O)N1S(=O)(=O)O [AZTREONAM]	Not Active	Not Active	Not Active	Not Active	Not Active	Not Active	Not Active	Not Active	Not Active	–	–	–
O=C(O)CCNC(=O)c1ccc(/N=N/c2ccc(O)c(C(=O)O)c2)cc1 [BALSALAZIDE]	Not Active	Not Active	Not Active	Not Active	Not Active	Not Active	Not Active	Not Active	Not Active	–	–	–
COc1cc(OC)c(C(=O)CCCN2CCCC2)c(OC)c1 [BUFLOMEDIL]	Not Active	Not Active	Not Active	Not Active	Not Active	Not Active	Not Active	Not Active	Not Active	–	–	–
Cn1c(=O)c2c(ncn2C)n(C)c1=O [CAFFEINE]	Not Active	Not Active	Not Active	Not Active	Not Active	Not Active	Not Active	Not Active	Not Active	–	–	–
CO/N=C(\C(=O)N[C@@H]1C(=O)N2C(C(=O)O)=C(COC(C)=O)CS[C@H]12)c1csc(N)n1 [CEFOTAXIME]	Not Active	Not Active	Not Active	Not Active	Not Active	Not Active	Not Active	Not Active	Not Active	–	–	–
CNC1=Nc2ccc(Cl)cc2C(c2ccccc2)=[N+]([O-])C1 [CHLORDIAZEPOXIDE]	Not Active	Not Active	Not Active	Not Active	Not Active	Not Active	Not Active	Not Active	Not Active	–	–	–
Cc1cc(O)cc(C)c1Cl [CHLOROXYLENOL]	Not Active	Not Active	Not Active	Not Active	Not Active	Not Active	Not Active	Not Active	Not Active	–	–	–
CCCNC(=O)NS(=O)(=O)c1ccc(Cl)cc1 [CHLORPROPAMIDE]	Not Active	Not Active	Not Active	Not Active	Not Active	Not Active	Not Active	Not Active	Not Active	–	–	–
NS(=O)(=O)c1cc(C2(O)NC(=O)c3ccccc32)ccc1Cl (stereo not given) [CHLORTHALIDONE]	Not Active	Not Active	Not Active	Not Active	Not Active	Not Active	Not Active	Not Active	Not Active	–	–	–
O=C(O)CC(O)(CC(=O)O)C(=O)O [CITRIC ACID]	Not Active	Not Active	Not Active	Not Active	Not Active	Not Active	Not Active	Not Active	Not Active	–	–	–
CC(C)NCC(O)c1ccccc1Cl (stereo not given) [CLORPRENALINE]	Not Active	Not Active	Not Active	Not Active	Not Active	Not Active	Not Active	Not Active	Not Active	–	–	–
CN1CCN(C(c2ccccc2)c2ccccc2)CC1 [CYCLIZINE]	–	Not Active	Not Active	Not Active	Not Active	Not Active	Not Active	Not Active	Not Active	1550	582	–
CN1C[C@@H]2C[C@H]1CN2c1cc2c(cc1F)c(=O)c(C(=O)O)cn2C1CC1 [DANOFLOXACIN]	Not Active	Not Active	Not Active	Not Active	Not Active	Not Active	Not Active	Not Active	Not Active	–	–	–
COc1cccc2c1C(=O)c1c(O)c3c(c(O)c1C2=O)C[C@@](O)(C(C)=O)C[C@@H]3O[C@H]1C[C@H](N)[C@H](O)[C@H](C)O1 [DAUNORUBICIN]	Not Active	Not Active	Not Active	Not Active	Not Active	Not Active	Not Active	Not Active	Not Active	–	–	–
O=C(O)c1cc(-c2ccc(F)cc2F)ccc1O [DIFLUNISAL]	Not Active	Not Active	Not Active	Not Active	Not Active	Not Active	Not Active	Not Active	Not Active	–	–	–
C[S+](C)[O-] [DIMETHYL SULFOXIDE]	Not Active	Not Active	Not Active	Not Active	Not Active	Not Active	–	Not Active	Not Active	–	–	Not Active
CC1=NN(c2ccccc2)C(=O)C1 [EDARAVONE]	Not Active	Not Active	Not Active	Not Active	Not Active	Not Active	Not Active	Not Active	Not Active	–	–	–
CC(C)C[C@H]1C(=O)N2CCC[C@H]2[C@]2(O)O[C@](NC(=O)[C@@H]3C=C4c5cccc6[nH]cc(c56)C[C@H]4N(C)C3)(C(C)C)C(=O)N12 [ERGOCRYPTINE]	–	Not Active	Not Active	Not Active	Not Active	Not Active	Not Active	Not Active	Not Active	7.95	2.98	–
C[C@]12CC[C@@H]3c4ccc(O)cc4CC[C@H]3[C@@H]1C[C@@H](O)[C@@H]2O [ESTRIOL]	Not Active	Not Active	Not Active	Not Active	Not Active	Not Active	Not Active	Not Active	Not Active	–	–	–
C#C[C@]1(O)CC[C@H]2[C@@H]3CCC4=CC(=O)CC[C@]4(C)[C@H]3CC[C@@]21C [ETHISTERONE]	Not Active	Not Active	Not Active	Not Active	Not Active	Not Active	Not Active	Not Active	Not Active	–	–	–
CC(O)(P(=O)(O)O)P(=O)(O)O [ETIDRONIC ACID]	Not Active	Not Active	Not Active	Not Active	Not Active	Not Active	Not Active	Not Active	Not Active	–	–	–
CC(C)(C(=O)O)c1ccc(C(O)CCCN2CCC(C(O)(c3ccccc3)c3ccccc3)CC2)cc1 (stereo not given) [FEXOFENADINE]	Not Active	Not Active	Not Active	Not Active	Not Active	Not Active	Not Active	Not Active	Not Active	–	–	–
